For one data set, the system named is HeLa. Put plainly: Antiproliferative activity against human HeLa cells incubated for 48 hrs by CCK-8 assay. It is filed as functional, cell-based.
Data set [1] relates to HCT-116. The data set is described as follows: Antiproliferative activity against human HCT-116 cells incubated for 48 hrs by CCK-8 assay. It is filed as functional, cell-based. The note with it: HCT-116, 48 h.
For data set [2], the system named is HCT-116. The data set is described as follows: Antitumor activity against human HCT-116 cells xenografted in nude mouse assessed as reduction in tumor volume at 50 mg/kg, po administered for 20 days and measured every 2 days. The class given is functional. Also noted: scale not given: the % may be the effect or the level left. The note with it: time 20 day.
Data set [3] can be described thus: Metabolic stability in human liver microsomes assessed as half life preincubated for 2 hrs followed by NADPH regenerating system addition and measured upto 4 hrs by LC-MS method. The note with it: time < 6 hrs. It is filed as ADME, Microsome.
Data set [4] can be described thus: Toxicity in mouse xenografted with human HCT-116 cells assessed as reduction in kidney damage at 50 mg/kg, po administered for 20 days and measured every 2 days by H and E staining based method. It is filed as organism-based. The conditions noted are these: in vivo, 480 h, time 20 day.
The test system of a further data set is HepG2. The data set is described as follows: Antiproliferative activity against human HepG2 cells incubated for 48 hrs by CCK-8 assay. The class given is functional, cell-based. The note with it: HepG2, 48 h.
Another data set concerns MDA-MB-231. Put plainly: Antiproliferative activity against human MDA-MB-231 cells incubated for 48 hrs by CCK-8 assay. It is filed as functional, cell-based. The note with it: MDA-MB-231, 48 h.
In a further data set the test system is SW480. Put plainly: Antiproliferative activity against human SW480 cells incubated for 48 hrs by CCK-8 assay. It is filed as functional, cell-based. The conditions noted are these: SW480, 48 h.
The nature of data set [5]: Toxicity in mouse xenografted with human HCT-116 cells assessed as reduction in body weight at 50 mg/kg, po administered for 20 days and measured every 2 days. The class given is organism-based. The conditions noted are these: in vivo, 480 h, time 20 day.
The nature of data set [6]: Antiproliferative activity against human HEK293T cells incubated for 48 hrs by CCK-8 assay. It is filed as toxicity, cell-based, HEK-293T.
A short description of data set [7]: Toxicity in mouse xenografted with human HCT-116 cells assessed as reduction in liver damage at 50 mg/kg, po administered for 20 days and measured every 2 days by H and E staining based method. The class given is organism-based. The note with it: in vivo, 480 h, time 20 day.
Data set [8] can be described thus: Metabolic stability in rat liver microsomes assessed as half life preincubated for 2 hrs followed by NADPH regenerating system addition and measured upto 4 hrs by LC-MS method. The conditions noted are these: time < 6 hrs. The class given is ADME, Microsome.
Data set [9] relates to HCT-116. Put plainly: Antitumor activity against human HCT-116 cells xenografted in nude mouse assessed as reduction in tumor weight at 50 mg/kg, po administered for 20 days and measured every 2 days. The class given is functional. The arrangement: scale not given: the % may be the effect or the level left. The conditions noted are these: time 20 day.
A short description of data set [10]: Toxicity in mouse xenografted with human HCT-116 cells assessed as reduction in liver damage at 50 to 100 mg/kg, po administered for 20 days and measured every 2 days by H and E staining based method. The class given is organism-based. The note with it: in vivo, 480 h, dose 50-100 mg/kg, time 20 day.
Data set [11] relates to HCT-116. The data set is described as follows: Induction of apoptosis in human HCT-116 cells assessed as late apoptotic cells at 0.125 uM incubated for 24 hrs by Annexin V and PI staining based flow cytometry analysis (reference value: 0.07%). The class given is functional.
In data set [12] the test system is HCT-116. The data set is described as follows: Induction of apoptosis in human HCT-116 cells assessed as late apoptotic cells at 2 uM incubated for 24 hrs by Annexin V and PI staining based flow cytometry analysis (reference value: 0.07%). The class given is functional.
Data set [13] concerns HCT-116. Put plainly: Antitumor activity against human HCT-116 cells xenografted in nude mouse assessed as reduction in tumor volume at 100 mg/kg, po administered for 20 days and measured every 2 days. The note with it: time 20.0 day. It is filed as functional, organism-based.
In data set [14] the test system is HCT-116. The data set is described as follows: Inhibition of colony formation in human HCT-116 cells at 2 uM incubated with compound for 24 hrs followed by media replacement and measured after 10 days by crystal violet staining based assay. It is filed as functional.
Data set [15] concerns HCT-116. Put plainly: Induction of apoptosis in human HCT-116 cells assessed as viable cells at 2 uM incubated for 24 hrs by Annexin V and PI staining based flow cytometry analysis (reference value: 99.63%). It is filed as functional. The conditions noted are these: read-out: Activity.
For data set [16], the target named is T1, Tubulin (Homo sapiens) (UniProt P68371+Q9H4B7+P0DPH7+P68366+Q13509+Q71U36+P04350+Q3ZCM7+P07437+P68363+Q9BQE3+Q6PEY2+Q13885+Q9BVA1+Q9BUF5). The data set is described as follows: Induction of microtubule depolymerization in human HCT-116 cells assessed as appearance of short microtubules at 40 nM by immunofluorescent assay. It is filed as cell-based.
Data set [17] can be described thus: Toxicity in mouse xenografted with human HCT-116 cells assessed as reduction in body weight at 50 to 100 mg/kg, po administered for 20 days and measured every 2 days. The class given is organism-based. The conditions noted are these: in vivo, 480 h, dose 50-100 mg/kg, time 20 day.
The subject of data set [18] is HCT-116. Put plainly: Induction of apoptosis in human HCT-116 cells assessed as necrotic cells at 0.5 uM incubated for 24 hrs by Annexin V and PI staining based flow cytometry analysis (reference value: 0.04%). It is filed as functional.
For data set [19], the system named is HCT-116. Put plainly: Induction of apoptosis in human HCT-116 cells assessed as viable cells at 0.5 uM incubated for 24 hrs by Annexin V and PI staining based flow cytometry analysis (reference value: 99.63%). The conditions noted are these: read-out: Activity. The class given is functional.
Data set [20] concerns HCT-116. The data set is described as follows: Induction of apoptosis in human HCT-116 cells assessed as early apoptotic cells at 0.125 uM incubated for 24 hrs by Annexin V and PI staining based flow cytometry analysis (reference value: 0.26%). The class given is functional.
Data set [21] relates to HCT-116. Put plainly: Induction of cell cycle arrest in human HCT-116 cells assessed as increase in G2/M phase cells incubated for 48 hrs by PI staining based flow cytometry analysis. The class given is functional. The conditions noted are these: dose 0.5-2 µM.
The nature of data set [22]: Toxicity in mouse xenografted with human HCT-116 cells assessed as reduction in kidney damage at 50 to 100 mg/kg, po administered for 20 days and measured every 2 days by H and E staining based method. The class given is organism-based. The note with it: in vivo, 480 h, dose 50-100 mg/kg, time 20 day.
Data set [23] deals with HCT-116. Put plainly: Antitumor activity against human HCT-116 cells xenografted in nude mouse assessed as reduction in tumor weight at 100 mg/kg, po administered for 20 days and measured every 2 days. The class given is functional, organism-based. The conditions noted are these: time 20.0 day.
Data set [24] concerns HCT-116. The data set is described as follows: Induction of apoptosis in human HCT-116 cells assessed as viable cells at 0.125 uM incubated for 24 hrs by Annexin V and PI staining based flow cytometry analysis (reference value: 99.63%). The conditions noted are these: read-out: Activity. It is filed as functional.
The target of data set [25] is T1, Tubulin (Homo sapiens). Put plainly: Induction of microtubule depolymerization in human HCT-116 cells assessed as appearance of microtubules wrapped around nucleus at 40 nM by immunofluorescent assay. The class given is cell-based.
Data set [26] concerns HCT-116. The data set is described as follows: Induction of apoptosis in human HCT-116 cells assessed as necrotic cells at 0.125 uM incubated for 24 hrs by Annexin V and PI staining based flow cytometry analysis (reference value: 0.04%). It is filed as functional.
Data set [27] deals with HCT-116. The data set is described as follows: Induction of apoptosis in human HCT-116 cells assessed as early apoptotic cells at 0.5 uM incubated for 24 hrs by Annexin V and PI staining based flow cytometry analysis (reference value: 0.26%). It is filed as functional.
For another data set, the target named is Tubulin (Sus scrofa, UniProt P02554+P02550). Put plainly: Inhibition of pig brain tubulin polymerization incubated for […] by spectrophotometric method. It is filed as tissue-based.
For data set [28], the target named is T1, Tubulin (Homo sapiens). Put plainly: Induction of microtubule depolymerization in human HCT-116 cells assessed as appearance of short microtubules at 160 nM by immunofluorescent assay. The class given is cell-based.
Data set [29] addresses T1, Tubulin (Homo sapiens). The data set is described as follows: Induction of microtubule depolymerization in human HCT-116 cells assessed as appearance of microtubules wrapped around nucleus at 160 nM by immunofluorescent assay. The class given is cell-based.
The subject of data set [30] is HCT-116. Put plainly: Inhibition of colony formation in human HCT-116 cells incubated with compound for 24 hrs followed by media replacement and measured after 10 days by crystal violet staining based assay. The class given is functional, cell-based. The conditions noted are these: dose 0.5-2 µM.
In data set [31] the test system is HCT-116. The data set is described as follows: Induction of apoptosis in human HCT-116 cells assessed as necrotic cells at 2 uM incubated for 24 hrs by Annexin V and PI staining based flow cytometry analysis (reference value: 0.04%). It is filed as functional.
Data set [32] concerns HCT-116. The data set is described as follows: Induction of apoptosis in human HCT-116 cells assessed as late apoptotic cells at 0.5 uM incubated for 24 hrs by Annexin V and PI staining based flow cytometry analysis (reference value: 0.07%). The class given is functional.
The subject of data set [33] is HCT-116. Put plainly: Induction of apoptosis in human HCT-116 cells assessed as early apoptotic cells at 2 uM incubated for 24 hrs by Annexin V and PI staining based flow cytometry analysis (reference value: 0.26%). The class given is functional.

The record followed here is ChEMBL document CHEMBL5360544, “Design, synthesis, and biological evaluation of diaryl heterocyclic derivatives targeting tubulin polymerization with potent anticancer activities” (Eur J Med Chem, 2023).

Calls of active or inactive are those of the source. The calls are words filed in the database; no cut-off is given here.

For the compound `COc1ccc(/C=C\c2cc(OC)c(OC)c(OC)c2)cc1O` [COMBRETASTATIN A4], the half-maximal inhibitory concentration (IC50) in the data set with HeLa was 630 nM; with HCT-116 [1], 2320 nM; with HepG2 it was 1360 nM; in the data set with MDA-MB-231, 2130 nM; with SW480, 40000 nM. Besides, the Activity was 31.4% in the data set on HCT-116 [2]; “Non-Toxic” in data set [4]; “Non-Toxic” in data set [5]; “Non-Toxic” in data set [7]; 28.8% with HCT-116 [9]. Besides, the half-life came out at 9.5 min in data set [3] and 2.3 min in [8]. Also, in [6], the IC50 at 48 h was over 80000 nM.

As to `COc1cc(-c2ccnn2-c2ccc(N)cc2)cc(OC)c1OC`, the Activity entry in data set [10] is recorded as “Non-Toxic”; in the data set on HCT-116 [11], 49.45%; in the data set on HCT-116 [12] it was 19.38%; in the data set with HCT-116 [2] it was 44.1%; in data set [17] it was “Non-Toxic”; with HCT-116 [18], 4.87%. The Activity with HCT-116 [20] was 46.19%; with HCT-116 [21] it was “Dose-Dependent Effect”; in data set [22] it was “Non-Toxic”; in the data set on HCT-116 [26], 2.17%; in the data set with HCT-116 [27], 61.42%; in the data set on HCT-116 [31], 1.72%. Also, the results for the Activity with HCT-116 [32], with HCT-116 [33] and in the data set with HCT-116 [9] were 28.79%, 75.68% and 27%, respectively. For the same compound, the IC50 in the data set with HeLa was 24600 nM; in the data set with HCT-116 [1], 2650 nM; with HepG2, 1540 nM; in the data set on MDA-MB-231, 11400 nM; on Tubulin, 8400 nM; in the data set on SW480 it was 37500 nM. The outcome with HCT-116 [13] and with HCT-116 [23] was inactive. In addition, the half-life in [3] was 106 min; in data set [8], 6.9 min. Also, the inhibition at 2 µM in the data set on HCT-116 [14] was found to be 100%. For the same compound, the viability at 2 µM in the data set on HCT-116 [15] turned out to be 3.22%. Besides, the result at Tubulin (Homo sapiens) [16], at Tubulin (Homo sapiens) [25], at Tubulin (Homo sapiens) [28] and on Tubulin (Homo sapiens) [29] was Active. The viability at 0.5 µM with HCT-116 [19] turned out to be 4.92%. Further, the viability at 0.125 µM with HCT-116 [24] was determined as 2.2%. Besides, the inhibition entry in the data set with HCT-116 [30] is “Dose-Dependent Effect”. In data set [6], this compound gave an IC50 at 48 h of over 80000 nM.
